From ChEMBL document CHEMBL1124592, “In vitro metabolic transformations of vinblastine: oxidations catalyzed by human ceruloplasmin” (J Med Chem, 1989)
≈ marks a conversion by molar mass, not a printed value.

System: CCRF-CEM
Test: Inhibition against […]-T-Cell leukemic cell line
Assay type: functional, cell-based
Details: Homo sapiens

Row | Compound | IC50
1 | CCC(=O)CC1CN(C=O)CCc2c([nH]c3ccccc23)[C@@](C(=O)OC)(c2cc3c(cc2OC)N(C)C2C4(C(=O)OC)OC5C=CN6CCC32C6[C@]5(CC)C4OC(C)=O)C1 (stereo not given in full) | 14 µg/mL (≈ 17 µM)
2 | CCC(=O)C[C@@H]1CN(C=O)CCc2c([nH]c3ccccc23)[C@@](C(=O)OC)(c2cc3c(cc2OC)N(C)[C@H]2[C@@](O)(C(=O)OC)[C@H](OC(C)=O)[C@]4(CC)C=CCN5CC[C@]32[C@@H]54)C1 | 7.7 µg/mL (≈ 9.33 µM)
3 | CC[C@]1(O)C[C@H]2CN(CCc3c([nH]c4ccccc34)[C@@](C(=O)OC)(c3cc4c(cc3OC)N(C=O)[C@H]3[C@@](O)(C(=O)OC)[C@H](OC(C)=O)[C@]5(CC)C=CCN6CC[C@]43[C@@H]65)C2)C1 [VINCRISTINE] | 0.025 µg/mL (≈ 0.0303 µM)
4 | CC[C@]12CN3CCc4c([nH]c5ccccc45)[C@@](C(=O)OC)(c4cc5c(cc4OC)N(C)[C@H]4[C@@](O)(C(=O)OC)[C@H](OC(C)=O)[C@]6(CC)C=CCN7CC[C@]54[C@@H]76)C[C@@H](C3)[C@H]1O2.CC[C@]12CN3CCc4c([nH]c5ccccc45)[C@@](C(=O)OC)(c4cc5c(cc4OC)N(C)[C@H]4[C@@](O)(C(=O)OC)[C@H](OC(C)=O)[C@]6(CC)C=CCN7CC[C@]54[C@@H]76)C[C@@H](C3)[C@H]1O2.O=S(=O)(O)O [VINLEUROSINE SULFATE] | 0.4 µg/mL
5 | CC[C@]1(O)C[C@@H]2CN(CCc3c([nH]c4ccccc34)[C@@](C(=O)OC)(c3cc4c(cc3OC)N(C)[C@H]3[C@@](O)(C(=O)OC)[C@H](OC(C)=O)[C@]5(CC)C=CCN6CC[C@]43[C@@H]65)C2)C1 [VINBLASTINE] | 0.1 µg/mL (≈ 0.123 µM)
